# US11339171B2, “MDM2 inhibitors” (Gan & Lee Pharmaceuticals, priority 2017, dated 2022)
# Molecular target: T1, MDM2 (Homo sapiens, UniProt Q00987)
# T1 construct: made in house
# Assay: Inhibition test of MDM2-P53 (GST-MDM2, Biotin-P53, Anti-GST-Tb, SA-XL665)
# Assay type: binding
# Settings: not given
# Method in brief: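 HTRF-type assay using 4 nM GST-MDM2 (final), Biotin-P53, SA-XL665 and anti-GST-Tb in PBS with 0.1% BSA, 5 mM DTT and 1 mM AEBSF. Compounds in 5-fold serial dilutions over twelve points; incubation 90 min at 25° C with shaking before plate-reader read-out.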
# T1 sequence (Q00987 whole entry): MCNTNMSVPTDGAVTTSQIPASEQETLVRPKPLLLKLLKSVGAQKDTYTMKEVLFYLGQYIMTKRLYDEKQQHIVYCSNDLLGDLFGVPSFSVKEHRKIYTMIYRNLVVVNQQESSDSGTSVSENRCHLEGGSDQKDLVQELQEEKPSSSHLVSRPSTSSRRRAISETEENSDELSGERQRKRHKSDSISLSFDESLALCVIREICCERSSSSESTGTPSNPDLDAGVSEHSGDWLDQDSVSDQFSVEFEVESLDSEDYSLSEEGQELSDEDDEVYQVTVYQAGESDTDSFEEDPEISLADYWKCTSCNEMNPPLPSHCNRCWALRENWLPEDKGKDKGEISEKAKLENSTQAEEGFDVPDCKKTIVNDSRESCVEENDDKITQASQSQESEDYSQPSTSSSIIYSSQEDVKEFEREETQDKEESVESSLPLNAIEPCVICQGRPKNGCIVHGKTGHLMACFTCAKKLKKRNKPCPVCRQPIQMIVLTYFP
row,Compound,IC50
1,"COc1cc(F)c(-c2nc3c(n2C(C)C)[C@@]2(C(=O)Nc4cc(Cl)ccc42)N(c2cc(Cl)ccc2C)C3=O)c(OC)c1 [Example S-130, (S)-6-chloro-5′-(5-chloro-2-methylphenyl)-2′-(2-fluoro-4,6-dimethoxyphenyl)-3′-isopropyl-3′H-spiro[dihydroindole-3,4′-pyrrolo[3,4-d]imidazole]-2,6′(5′H)-dione]",5.59 nM
2,"COc1ncc(-c2nc3c(n2C(C)C)[C@@]2(C(=O)Nc4cc(Cl)ccc42)N(c2cc(Cl)ccc2C#N)C3=O)c(OC)n1 [Example S-151, (S)-4-chloro-2-(6-chloro-2′-(2,4-dimethoxypyrimidin-5-yl)-3′-isopropyl-2,6′-dioxo-3′,6′-dihydro-5′H-spiro[dihydroindole-3,4′-pyrrolo[3,4-d]imidazole]-5′-yl)benzonitrile]",1410 nM

# Tested on: human osteosarcoma cell line SJSA-1
# Assay: Inhibition of proliferation of human osteosarcoma cell line SJSA-1 (DAPI staining, In Cell Analyzer)
# Settings: labels are Example numbers; the compounds with S-configuration are meant
row,Compound,inhibitory effect on human osteosarcoma cell line SJSA-1 compared with positive control compound HDM201
1,"COc1cc(F)ccc1-c1nc2c(n1C(C)C)C1(C(=O)Nc3cc(Cl)ccc31)N(c1cc(Cl)ccc1C)C2=O (centres unmarked) [Example 4, 6-chloro-5′-(5-chloro-2-methylphenyl)-2′-(4-fluoro-2-methoxyphenyl)-3′-isopropyl-3′H-spiro[dihydroindole-3,4′-pyrrolo[3,4-d]imidazole]-2,6′(5′H)-dione]",better
2,"COc1ccc(-c2nc3c(n2C(C)C)C2(C(=O)Nc4cc(Cl)ccc42)N(c2cc(Cl)ccc2C)C3=O)c(OC)c1 (centres unmarked) [Example 9, 6-chloro-5′-(5-chloro-2-methylphenyl)-2′-(2,4-dimethoxyphenyl)-3′-isopropyl-3′H-spiro[dihydroindole-3,4′-pyrrolo[3,4-d]imidazole]-2,6′(5′H)-dione]",better
3,"COc1ccc(C#N)cc1-c1nc2c(n1C(C)C)C1(C(=O)Nc3cc(Cl)ccc31)N(c1cc(Cl)ccc1C)C2=O (centres unmarked) [Example 13, 3-(6-chloro-5′-(5-chloro-2-methylphenyl)-3′-isopropyl-2,6′-dioxo-5′,6′-dihydro-3′H-spiro[dihydroindole-3,4′-pyrrolo[3,4-d]imidazole]-2′-yl)-4-methoxybenzonitrile]",better
4,"COc1cc(N(C)C)ccc1-c1nc2c(n1C(C)C)C1(C(=O)Nc3cc(Cl)ccc31)N(c1cc(Cl)ccc1C)C2=O (centres unmarked) [Example 23, 6-chloro-5′-(5-chloro-2-methylphenyl)-2′-(4-(dimethylamino)-2-methoxyphenyl)-3′-isopropyl-3′H-spiro[dihydroindole-3,4′-pyrrolo[3,4-d]imidazole]-2,6′(5′H)-dione]",better
5,"COc1cc(C)ccc1-c1nc2c(n1C(C)C)C1(C(=O)Nc3cc(Cl)ccc31)N(c1cc(Cl)ccc1C)C2=O (centres unmarked) [Example 24, 6-chloro-5′-(5-chloro-2-methylphenyl)-3′-isopropyl-2′-(2-methoxy-4-methylphenyl)-3′H-spiro[dihydroindole-3,4′-pyrrolo[3,4-d]imidazole]-2,6′(5′H)-dione]",better
6,CNc1ccc(-c2nc3c(n2C(C)C)C2(C(=O)Nc4cc(Cl)ccc42)N(c2cc(Cl)ccc2C)C3=O)c(OC)c1 (centres unmarked) [Example 25],better
7,"COc1cc(C(C)C)ccc1-c1nc2c(n1C(C)C)C1(C(=O)Nc3cc(Cl)ccc31)N(c1cc(Cl)ccc1C)C2=O (centres unmarked) [Example 32, 6-chloro-5′-(5-chloro-2-methylphenyl)-3′-isopropyl-2′-(4-isopropyl-2-methoxyphenyl)-3′H-spiro[dihydroindole-3,4′-pyrrolo[3,4-d]imidazole]-2,6′(5′H)-dione]",better
8,"CCc1ccc(-c2nc3c(n2C(C)C)C2(C(=O)Nc4cc(Cl)ccc42)N(c2cc(Cl)ccc2C)C3=O)c(OC)c1 (centres unmarked) [Example 33, 6-chloro-5′-(5-chloro-2-methylphenyl)-2′-(4-ethyl-2-methoxyphenyl)-3′-isopropyl-3′H-spiro[dihydroindole-3,4′-pyrrolo[3,4-d]imidazole]-2,6′(5′H)-dione]",better
9,"COc1cc(OC)c(-c2nc3c(n2C(C)C)C2(C(=O)Nc4cc(Cl)ccc42)N(c2cc(Cl)ccc2C)C3=O)cc1C (centres unmarked) [Example 83, 6-chloro-5′-(5-chloro-2-methylphenyl)-2′-(2,4-dimethoxy-5-methylphenyl)-3′-isopropyl-3′H-spiro[dihydroindole-3,4′-pyrrolo[3,4-d]imidazole]-2,6′(5′H)-dione]",better
10,"COc1cc(C2CC2)ccc1-c1nc2c(n1C(C)C)C1(C(=O)Nc3cc(Cl)ccc31)N(c1cc(Cl)ccc1C)C2=O (centres unmarked) [Example 86, 6-chloro-5′-(5-chloro-2-methylphenyl)-2′-(4-cyclopropyl-2-methoxyphenyl)-3′-isopropyl-3′H-spiro[dihydroindole-3,4′-pyrrolo[3,4-d]imidazole]-2,6′(5′H)-dione]",better
11,"COc1cc(C(C)C)ccc1-c1nc2c(n1C(C)C)C1(C(=O)Nc3cc(Cl)ccc31)N(c1cc(Cl)cnc1C)C2=O (centres unmarked) [Example 89, 6-chloro-5′-(5-chloro-2-methylpyridin-3-yl)-3′-isopropyl-2′-(4-isopropyl-2-methoxyphenyl)-3′H-spiro[dihydroindole-3,4′-pyrrolo[3,4-d]imidazole]-2,6′(5′H)-dione]",better
12,"COc1cc(N(C)C)c(C)cc1-c1nc2c(n1C(C)C)C1(C(=O)Nc3cc(Cl)ccc31)N(c1cc(Cl)ccc1C)C2=O (centres unmarked) [Example 91, 6-chloro-5′-(5-chloro-2-methylphenyl)-2′-(4-(dimethylamino)-2-methoxy-5-methylphenyl)-3′-isopropyl-3′H-spiro[dihydroindole-3,4′-pyrrolo[3,4-d]imidazole]-2,6′(5′H)-dione]",better
13,"CCN(C)c1ccc(-c2nc3c(n2C(C)C)C2(C(=O)Nc4cc(Cl)ccc42)N(c2cc(Cl)ccc2C)C3=O)c(OC)c1 (centres unmarked) [Example 99, 6-chloro-5′-(5-chloro-2-methylphenyl)-2′-(4-(ethyl(methyl)amino)-2-methoxyphenyl)-3′-isopropyl-3′H-spiro[dihydroindole-3,4′-pyrrolo[3,4-d]imidazole]-2,6′(5′H)-dione]",better
14,"COc1cc(C(C)(C)C)ccc1-c1nc2c(n1C(C)C)C1(C(=O)Nc3cc(Cl)ccc31)N(c1cc(Cl)ccc1C)C2=O (centres unmarked) [Example 101, 2′-(4-(tert-butyl)-2-methoxyphenyl)-6-chloro-5′-(5-chloro-2-methylphenyl)-3′-isopropyl-3′H-spiro[dihydroindole-3,4′-pyrrolo[3,4-d]imidazole]-2,6′(5′H)-dione]",better
15,"COc1cc(C2CC2)ncc1-c1nc2c(n1C(C)C)C1(C(=O)Nc3cc(Cl)ccc31)N(c1cccc(Cl)c1)C2=O (centres unmarked) [Example 106, 6-chloro-5′-(3-chlorophenyl)-2′-(6-cyclopropyl-4-methoxypyridin-3-yl)-3′-isopropyl-3′H-spiro[dihydroindole-3,4′-pyrrolo[3,4-d]imidazole]-2,6′(5′H)-dione]",better
